US20040002537A1, “Use of statins in the treatment of autoimmune disease” (priority 2002, published 2004)

Columns and labels:
[1] = tested on: MOG p35-55-induced EAE in C57BL/6 mice; assay: MOG p35-55-induced chronic EAE, oral atorvastatin; type: in vivo, mouse; conditions: daily oral
[2] = tested on: PLP p139-151-induced EAE in SJL/J mice; assay: PLP p139-151-induced relapsing EAE, oral atorvastatin; type: in vivo, mouse
[3] = tested on: MBP Ac1-11-induced EAE in MBP Ac1-11 Tg mice; assay: MBP Ac1-11-induced acute EAE, oral atorvastatin; type: in vivo, mouse; conditions: FIG. 1E
[4] = tested on: PLP p139-151-stimulated spleen cells
Method: Ag Specific Ex-vivo T Cell Proliferation Assay. […] Lymph node cells (LNCs) or splenocytes were cultured in vitro for specific proliferative response to the specific encephalogenic peptide (PLP 139-151, MOG 35-55 or MBP Ac1-11, respectively). LNCs were prepared in 96-well microtiter plates in a volume of 0.2 ml/well at a concentration of 5×10^6 cells/ml. The culture medium consisted of enriched RPMI (RPMI 1640 supplemented with L-glutamine [2 mM], sodium pyruvate [1 mM], nonessential amino acids [0.1 mM], penicillin [100 U/ml], streptomycin [0.1 mg/ml], 2-ME [5×10^−5 M]) supplemented with 1% autologous fresh normal mouse serum with the addition of different peptides concentrations. Cultures were incubated in 37° C. in humidified air containing 5% CO2. Cultures taken from SJL/J or C57BL/6 mice were incubated for 72h whereas cultures from MBPAc-1-11 Tg mice were incubated for 48 hours and then were pulsed for 18 hr with 1 μCi/well of [^3H] thymidine. The cells were then harvested and counted in a β counter.

[5] = tested on: Th1/Th2 cytokines (IL-2, IFN-γ, IL-4, IL-10); assay: Cytokine profile determination by ELISA, ex vivo lymph node and spleen cells; type: in vivo, mouse
Method: Cytokine Profile Determination. Lymph node cells and spleen cells from EAE donors were stimulated in vitro (2.5×10^6 cells/ml) in 24-well plates with or without the encephalogenic peptide or with […] as positive control. Cell culture supernatants were collected at different time points for measurements of cytokine levels: 48 hours for IL-2 , 72 hours for IFN-γ and TNF α, and 120 hours for […]. Cytokine levels were determined using specific ELISA kits for the corresponding cytokines according to the manufacturer's protocols (PharMingen, San Diego, Calif., USA).

STAT6 [6] = assay: Western blot for STAT6 phosphorylation in draining lymph node cells of treated mice; type: in vivo, mouse; conditions: SJL/J mice, 1 mg/kg and 10 mg/kg oral, 10 days after EAE induction, FIG. 5 lanes 2 and 3
Method: (§1) Western Blot Analysis for STAT-6 and STAT-4 Phosphorylation. Western Blot analysis was performed as described in Garren et al. (2001) Immunity 15:15, with minor modifications. Lymph nodes from control and atorvastatin-treated mice were homogenized in T-PER protein extraction buffer (Pierce,), with 20 μg/ml aprotinin, 20 μg/ml leupeptin, 1.6 mM Pefablock SC (Roche), 10 mM NaF, 1 mM Na3VO4 and 1 mM Na4P2O7 (Sigma, St. Louis, Mo.). All procedures were handled on ice. As a positive control, lymph node cells from naive mice were isolated and cultured for one hour with mouse recombinant IL-4 (10 ng/ml) or INF-γ (100 units/ml), for STAT6 and STAT4 expression respectively. Protein concentrations were determined by BCA protein assay (Pierce). Lysate was added to 3×SDS loading buffer (Cell Signaling Technology) with 40 mM DTT. Products were separated by electrophoresis on a 4-15% SDS-PAGE gradient gel (BioRad). Pre-stained markers (Invitrogen) were used to determine MW. Gels were blotted to PVDF membranes at 100 V in 25 mM Tris, 192 mM glycine and 20% (v/v) methanol, then blocked 1 hr at RT with Tris-buffered saline (TBS) containing 0.1% Tween-20 and 5% nonfat dry milk. […]

MHC II = conditions: through the effect on the CIITA p IV gene; cited from earlier work
microglia and astrocytes = conditions: cited from earlier work
STAT6 [7] = assay: Western blot for STAT6 phosphorylation, naive lymph node cells cultured with IL-4 (positive control); type: cell-based, mouse; conditions: 10 ng/ml for one hour, FIG. 5 lane 4
Method: as §1

In the case of `CC(C)c1c(C(=O)Nc2ccccc2)c(-c2ccccc2)c(-c2ccc(F)cc2)n1CC[C@@H](O)C[C@@H](O)CC(=O)O` [atorvastatin], the “EAE clinical score, treatment starting at EAE onset” value ([1]; C57Bl/6 female mice, 1 mg/kg or 10 mg/kg, FIG. 1A) is reported as “suppressed EAE induction”, the “EAE clinical score, treatment after onset” value ([1]; C57Bl/6 mice, FIG. 1B) is reported as “ameliorated EAE” and the “Ongoing relapsing EAE, treatment begun after recovery from acute EAE” value ([2]; FIG. 1D) is reported as “reversal of ongoing relapsing EAE”. For the same molecule, the “Prevention of relapsing EAE” value ([2]; treatment at onset, FIG. 1C) was “effective in prevention of relapsing EAE”, the “Acute EAE progression” value [3] was “successfully prevented acute EAE progression” and the “PLP p139-151-specific proliferative responses (3H-thymidine incorporation)” value ([4]; cells from SJL/J mice treated with 1 or 10 mg/kg, FIG. 4A) was “suppressed in a dose-related fashion”. For the same molecule, the “Cell death in the in vitro cultures” value ([4]; lymphocytes from treated mice) was “not observed increased cell death”, the “Th2 bias (proliferation and cytokines) in other strains” value ([5]; C57BL/6 and MBP Ac1-11-specific transgenic mice) was “almost identical Th2 bias” and the “Secretion of IL-10” value ([5]; SJL/J mice, 10 mg/kg, ELISA, FIG. 4E) was “observed at the higher treatment dose”. The “Production of IL-2” value ([5]; SJL/J mice, 1 and 10 mg/kg, ELISA, FIG. 4B) was “reduced, although to a much greater extent in mice treated with 10 mg/kg”, the “Secretion of IFN-γ” value ([5]; SJL/J mice, both treatment doses (1 and 10 mg/kg), ELISA, FIG. 4C) was “dramatic reduction” and the IL-4 secretion ([5]; SJL/J mice, both treatment doses (1 and 10 mg/kg), ELISA, FIG. 4D) was “induced at both treatment doses”. For the same molecule, the “Phosphorylated STAT6 in lymph nodes (Western blot)” value (STAT6 [6]) was “phosphorylated STAT6 is seen” and the “Expression of MHC II” value (MHC II) was “could inhibit the expression of MHC II”.

For `CC[C@H](C)C(=O)O[C@H]1C[C@@H](C)C=C2C=C[C@H](C)[C@H](CC[C@@H]3C[C@@H](O)CC(=O)O3)[C@H]21` [lovastatin], the “Production of iNOS and proinflammatory cytokines (TNFα, IL-1β and IL-6)” value (microglia and astrocytes) is given as “inhibited production”.

B1: mouse recombinant IL-4: mouse recombinant IL-4 (10 ng/ml), positive control for STAT6 phosphorylation (protein, UniProt P07750 21-140, looked up)
Interleukin-4: HIHGCDKNHLREIIGILNEVTGEGTPCTEMDVPNVLTATKNTTESELVCRASKVLRIFYLKHGKTPCLKKNSSVLMELQRLFRAFRCLDSSISCTMNESKSTSLKDFLESLKSIMQMDYS
In the case of B1, the “Phosphorylated STAT6 in naive lymph node cells (Western blot)” value (STAT6 [7]) is reported as “phosphorylated STAT6 is seen”.
